Reference: patent publication US10487078B2, “Compositions and methods of targeting mutant K-RAS” (NantBio, Inc., priority 2015, dated 2019)
Read-outs that look alike come from different tables or passages of the source.

What was measured:
Type in all cases: cell-based
K-ras G12V = K-ras G12V (Homo sapiens, UniProt P01116, G12V); assay: G-LISA Ras activation assay, 293H cells transfected with G12V mutant; details: 1 hour treatment
Description: (§1) 293H cells were seeded in 6-wells at 0.6×10^6 cells per well and transfected next day with 5 μg of Ras wild-type, or G12C, G12D or G12V mutant DNA plasmid vector using transfection reagent Lipofectamine 3000. Next day cells were treated with 3.125-50 μM of Ras compounds for 1 hour. Wild-type transfected cells were subsequently treated with 100 ng/ml EGF for 2 minutes. Cells were washed once in ice-cold PBS, lysed in complete lysis buffer on ice, and processed by G-LISA according to Cytoskeleton protocol.
In-cell selectivity of the compounds presented herein against a specific K-ras mutant form can also be tested as shown in the following exemplary experiment. 293H cells were seeded in 6-wells and transfected next day with 5 μg of Ras wild-type, or G12C, G12D or G12V mutant DNA plasmid vector. Next day cells were treated with 3.125-50 μM of Ras compounds for 1 hour. Wild-type transfected cells were subsequently treated with 100 ng/ml EGF for 2 minutes. Cells were washed once in ice-cold PBS, lysed in complete lysis buffer on ice, and processed by G-LISA according to Cytoskeleton protocol. FIG. 1 depicts exemplary results.
as §1, with “In still further experiments, the inventors tested selected compounds in a G-LISA assay to compare IC50 values for wild-type and various mutant K-Ras (G12D, G12V) using the following general protocol: 293H” for “293H”

[1] = system: Erk phosphorylation in Panc1 (G12D) cells; assay: In-Cell Western Erk phosphorylation; details: EC50, one hour treatment; read-out: In-Cell Western Erk phosporylation Panc1 (G12D)
Description: (§2) In-cell phosphorylation assays for Erk and Akt were performed on various of the compounds and exemplary results are shown in Table 3 below using […] and Panc10.05 cell lines for G12D K-ras mutants.
(§3) Cells are seeded in complete medium into black sided, clear-bottom 384-well microplates at 3000 cells/[…]/well. Plates are returned to 37° C. CO2 incubator for 18 hr. Drug is made as 200× in DMSO and diluted into medium to 10×. To each well is added 4 ul 10× test article or controls, and plates are returned to the incubator. Final assay DMSO concentration is 0.5%. After one hour, cells are fixed in formaldehyde, rinsed & permeabilized with triton X-100, and blocked with BSA/Goat serum blocking solution. Primary phospho-Akt and phospho-ERK antibodies are added and plates are incubated overnight at 4° C. Plates are rinsed with Tween-20 wash buffer and secondary antibody (Goat anti-rabbit, Thermofisher) is added. After 2 hours, plates are rinsed in Tween-20 wash buffer, and then PBS. Plates are imaged on the Celigo (Nexcelom) and cellular fluorescence is quantitated. Full inhibition of phospho-Akt is achieved with 1 uM BEZ235 (Sellekchem), while full inhibition of phospho-ERK is achieved with 1 uM MEK Inhibitor II Calbiochem). EC50 values are calculated using Graphpad Prism.

[2] = system: Erk phosphorylation in Panc10.05 (G12D) cells; assay: In-Cell Western Erk phosphorylation; details: EC50, one hour treatment; read-out: In-Cell Western Erk phosporylation Panc10.05 (G12D)
Description: as §2, §3

[3] = system: Akt phosphorylation in Panc10.05 (G12D) cells; assay: In-Cell Western Akt phosphorylation; details: EC50, one hour treatment; read-out: In-Cell Western Akt phosporylation Panc10.05 (G12D)
In short: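 Panc1 or Panc10.05 cells (G12D K-ras) seeded 18 hr before 1 h compound treatment at 37° C, 0.5% DMSO final. Fixed cells immunostained for phospho-Erk and phospho-Akt, with cellular fluorescence imaged. EC50 relative to full inhibition by 1 uM BEZ235 (pAkt) or 1 uM MEK Inhibitor II (pErk).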

[4] = system: Ras in BxPC-3 (K-Ras wild-type), Panc10.05 (K-Ras G12D mutant), Capan-2 (K-Ras G12V) cells; assay: G-LISA Ras inhibition in cancer cell lines (FIG. 2); details: 3.1 to 25 μM, 1 hour, then 100 ng/ml EGF 2 minutes
Description: To verify the results in specific cancer cell lines, cancer cell lines BxPC-3 (K-Ras wild-type), Panc10.05 (K-Ras G12D mutant), and Capan-2 (K-Ras G12V) were treated with 3.1 to 25 μM of Ras compound A0837 for 1 hour before stimulation with 100 ng/ml EGF for 2 minutes. Cells were washed once in ice-cold PBS, lysed in complete lysis buffer on ice, and processed by G-LISA according to Cytoskeleton protocol.

[5] = system: pMEK and pErk in Panc10.05 (K-Ras G12D mutant) cells; assay: SDS-PAGE/blot detection of pMEK and pErk (FIG. 3); details: serum-starved, 3.1 to 25 μM, 1 hour, then 100 ng/ml EGF 5 minutes
Description: The effect of contemplated compounds on cell signaling was tested in wild type and K-ras G12D mutant cells as follows: Cancer cell lines BxPC-3 (K-Ras wild-type), and Panc10.05 (K-Ras G12D mutant) were serum-starved 0/N before treatment with 3.1 to 25 μM of Ras compound A0837 for 1 hour before stimulation with 100 ng/ml EGF for 5 minutes. Cells were washed once in ice-cold PBS, lysed in complete lysis buffer on ice, and processed by SDS-PAGE under reducing conditions for the detection of pMEK and pErk. Membranes were stripped and re-probed for total MEK/Erk.

Chain of K-ras G12V (P01116 1-188 isoform P01116-2 G12V): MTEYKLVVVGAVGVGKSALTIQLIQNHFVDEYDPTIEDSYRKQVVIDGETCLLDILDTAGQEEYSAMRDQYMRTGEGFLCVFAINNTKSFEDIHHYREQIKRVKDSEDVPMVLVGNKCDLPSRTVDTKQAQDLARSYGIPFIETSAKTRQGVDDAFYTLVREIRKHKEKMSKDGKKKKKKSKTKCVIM

`Cc1nc(C)c(C(=O)Nc2nc(-c3ccc4[nH]c(=O)[nH]c4c3)cs2)s1` [Compound 4562] gave an IC50 (K-ras G12V; Table 1, G-LISA, 293H transfected, read-out: IC50 (μM) G12V) of 38 µM, an IC50 (K-ras G12V; Table 5, IC50, 293H transfected, read-out: G-LISA (G12V)) of 38 µM and an EC50 [1] of 5 µM. For the same molecule, the EC50 [2] was 4 µM, the EC50 [3] was 22 µM and the “Selectivity of Ras inhibition in cancer cell lines, G-LISA (FIG. 2)” value [4] was “clear selectivity towards K-ras mutant G12D”. For the same molecule, the “Signaling downstream of Ras (pMEK, pErk), mutant cell line (FIG. 3)” value [5] was “inhibited signaling downstream of Ras in the mutant cell line”.
